Results: patent publication US6861524B2, “Acyl and sulfonyl derivatives of 6,9-disubstituted 2-(trans-1,4-diaminocyclohexyl)-purines and their use as antiproliferative agents” (Aventis Pharmaceuticals Inc., priority 2000, dated 2005)
Marks after values point to notes of the source that are not given here. Values belong to the compound of their own block, whether it stands above or below them.

Legend:
[1] = Red blood cell binding (RBC to plasma ratio), mouse whole blood; type: in vitro ADME; conditions: 30 minutes at 37° C., nominal 500 ng/ml, hematocrit 0.41
Experimental: (§1) Compounds, including one positive control, are assessed for red blood cell (RBC) uptake, using a modified procedure based on the protocol reported in Sun, J. X. S., et al. High-performance liquid chromatographic analysis, plasma protein binding and red blood cell partitioning of phenprobamate. Biopharmaceutics and Drug Disposition, 8 (1987) 341-351.
(§2) Briefly, RBC uptake is evaluated by comparison of the levels in spiked plasma (n=3) and plasma isolated from spiked whole blood (n=3). Compounds are incubated with human and mouse whole blood, respectively, for 30 minutes at 37° C. using a nominal concentration of 500 ng/ml. Following centrifugation, the plasma is removed and submitted for analysis. Each compound is also spiked into blank plasma at a nominal concentration of 500 ng/ml, and submitted for analysis. Levels in the two plasma samples (Cp′ and Cp in the equation below) and the blood hematocrit are used to determine the red blood cell to plasma ratio (Crbc/Cp). [formula] In equation 1, Cp′ is the level of drug in the spiked “blank” plasma, Cp is the level of drug in the plasma of spiked whole blood, and H is the hematocrit. The hematocrit values are determined as 0.4 for human whole blood and 0.41 for mouse whole blood. The samples are analyzed with ESI LC/MS, using positive ion detection with an internal standard.
(§3) The red blood cell to plasma ratio is determined for each compound using equation 1. Tables 6 and 7 summarize the respective mean Crbc/Cp values and standard deviations for mouse and human whole blood, respectively, in descending order based on the red blood cell to plasma ratio, where “*” denotes Positive Control, and “ND” denotes Not Determined. MDL 108552 is included as a positive control for red blood cell uptake.

[2] = Red blood cell binding (RBC to plasma ratio), human whole blood; type: in vitro ADME; conditions: 30 minutes at 37° C., nominal 500 ng/ml
Experimental: as §1, §2, §3

[3] = Plasma pharmacokinetics in mice after single intravenous cassette doses; conditions: for Mean Conc. in plasma / Mean concentration in plasma / concentration at 0.083 h / concentration at 0.25 h / concentration at 0.5 h / concentration at 1 h / concentration at 3 h / concentration at 6 h / concentration at 8 h: mice; for Mean concentration in plasma: single 18 mg/kg intravenous cassette dose (Cassette #1); for concentration at 0.083 h / concentration at 0.25 h / concentration at 0.5 h / concentration at 1 h / concentration at 3 h / concentration at 6 h / concentration at 8 h / AUC(0-inf) / Cmax / half-life: male, Hsd:ICR (CD-1), mouse, plasma, 3 mg/kg; for concentration at 0.083 h / concentration at 0.25 h / concentration at 0.5 h / concentration at 1 h / concentration at 3 h / concentration at 6 h / concentration at 8 h: intravenous, Mean Conc. in plasma; for AUC(0-inf) / Cmax / half-life: iv; for AUC(0-inf): AUC0-∞; for Cmax: Cmax (highest measured value); for half-life: t1/2, λz
[4] = Cassette #4, single 15 mg/kg iv cassette dose (3 mg/kg/compound), 0.083 h
[5] = Cassette #4, single 15 mg/kg iv cassette dose (3 mg/kg/compound), 0.25 h
[6] = Cassette #4, single 15 mg/kg iv cassette dose (3 mg/kg/compound), 0.5 h
[7] = Cassette #4, single 15 mg/kg iv cassette dose (3 mg/kg/compound), 1 h
[8] = Cassette #4, single 15 mg/kg iv cassette dose (3 mg/kg/compound), 3 h
[9] = Cassette #4, single 15 mg/kg iv cassette dose (3 mg/kg/compound), 6 h
[10] = Cassette #4, single 15 mg/kg iv cassette dose (3 mg/kg/compound), 8 h
[11] = Cassette #4, single 15 mg/kg iv cassette dose (3 mg/kg/compound), 24 h
[12] = 24 h, BLQ = below assay quantification limit (approx. 1 ng/ml)
[13] = Cassette #2, single 18 mg/kg iv cassette dose (3 mg/kg/compound), 8 h
[14] = mouse plasma, iv Cassette #2, 3 mg/kg/compound (18 mg/kg total dose)
[15] = mouse plasma, iv Cassette #3, 3 mg/kg/compound (15 mg/kg total dose)
[16] = mouse plasma, iv Cassette #4, 3 mg/kg/compound (15 mg/kg total dose)
[17] = Cassette #2, single 18 mg/kg iv cassette dose (3 mg/kg/compound), 24 h

SMILES: Cl.Cl.N[C@H]1CC[C@H](Nc2nc(NC3CCN(C(=O)Oc4ccc([N+](=O)[O-])cc4)CC3)c3ncn(C4CCCC4)c3n2)CC1 [Compound 89, trans-4-[2-(4-Amino-cyclohexylamino)-9-cyclopentyl-9H-purin-6-ylamino]-piperidine-1-carboxylic acid 4-nitro-phenyl ester dihydrochloride]
Mean Red Blood Cell to Plasma Ratio [1]: 4.7
Mean Red Blood Cell to Plasma Ratio [2]: 4.2
Mean Conc. in plasma [3, 4]: 642.0 ± 49.5 ng/mL
Mean Conc. in plasma [3, 5]: 303.3 ± 34.3 ng/mL
Mean Conc. in plasma [3, 6]: 142.4 ± 2.7 ng/mL
Mean Conc. in plasma [3, 7]: 52.4 ± 4.2 ng/mL
Mean Conc. in plasma [3, 8]: 17.0 ± 4.7 ng/mL
Mean Conc. in plasma [3, 9]: 3.7 ± 1.0 ng/mL
Mean Conc. in plasma [3, 10]: 3.8 ± 0.5 ng/mL
Mean Conc. in plasma [3, 11]: BLQ

SMILES: COC(=O)c1ccc(OC(=O)N2CCC(Nc3nc(N[C@H]4CC[C@H](N)CC4)nc4c3ncn4C3CCCC3)CC2)cc1.Cl.Cl [Compound 83, trans-4-[2-(4-Amino-cyclohexylamino)-9-cyclopentyl-9H-purin-6-ylamino]-piperidine-1-carboxylic acid 4-methoxycarbonyl-phenyl ester dihydrochloride]
Mean Red Blood Cell to Plasma Ratio [2]: 4.1
Mean concentration in plasma ([3]; 0.083 h): 1515.7 ± 611.8 ng/mL
Mean concentration in plasma ([3]; 0.25 h): 217.9 ± 92.8 ng/mL
Mean concentration in plasma ([3]; 0.5 h): 61.3 ± 32.9 ng/mL
Mean concentration in plasma ([3]; 1 h): 14.1^a ng/ml
Mean concentration in plasma ([3]; 3 h): 4.1^a ng/ml
Mean concentration in plasma ([3]; 6 h): 1.6^a ng/ml
Mean concentration in plasma ([3]; 8 h): 6.3^a ng/ml
Mean concentration in plasma [3, 12]: BLQ

concentration at 0.083 h ([3]; Cassette #2, single 18 mg/kg iv cassette dose (3 mg/kg/compound), 0.083 h): 472 ng/mL
concentration at 0.25 h ([3]; Cassette #2, single 18 mg/kg iv cassette dose (3 mg/kg/compound), 0.25 h): 317 ng/mL
concentration at 0.5 h ([3]; Cassette #2, single 18 mg/kg iv cassette dose (3 mg/kg/compound), 0.5 h): 266 ng/mL
concentration at 1 h ([3]; Cassette #2, single 18 mg/kg iv cassette dose (3 mg/kg/compound), 1 h): 133 ng/mL
concentration at 3 h ([3]; Cassette #2, single 18 mg/kg iv cassette dose (3 mg/kg/compound), 3 h): 16.1 ± 1.4 ng/mL
concentration at 6 h ([3]; Cassette #2, single 18 mg/kg iv cassette dose (3 mg/kg/compound), 6 h): 2.8 ± 0.4 ng/mL
concentration at 8 h [3, 13]: 1.6 ± 0.2 ng/mL
concentration at 0.083 h ([3]; Cassette #3, single 15 mg/kg iv cassette dose (3 mg/kg/compound), 0.083 h): 520 ± 69.3 ng/mL
concentration at 0.25 h ([3]; Cassette #3, single 15 mg/kg iv cassette dose (3 mg/kg/compound), 0.25 h): 324 ± 32.3 ng/mL
concentration at 0.5 h ([3]; Cassette #3, single 15 mg/kg iv cassette dose (3 mg/kg/compound), 0.5 h): 209 ± 24.1 ng/mL
concentration at 1 h ([3]; Cassette #3, single 15 mg/kg iv cassette dose (3 mg/kg/compound), 1 h): 108 ± 29.3 ng/mL
concentration at 3 h ([3]; Cassette #3, single 15 mg/kg iv cassette dose (3 mg/kg/compound), 3 h): 23.5 ± 6.4 ng/mL
concentration at 6 h ([3]; Cassette #3, single 15 mg/kg iv cassette dose (3 mg/kg/compound), 6 h): 5 ± 0.5 ng/mL
concentration at 8 h ([3]; Cassette #3, single 15 mg/kg iv cassette dose (3 mg/kg/compound), 8 h): 2.4 ± 1.7 ng/mL
concentration at 0.083 h [3, 4]: 567 ± 43.5 ng/mL
concentration at 0.25 h [3, 5]: 491 ± 32.3 ng/mL
concentration at 0.5 h [3, 6]: 325 ± 13.6 ng/mL
concentration at 1 h [3, 7]: 145 ± 9.5 ng/mL
concentration at 3 h [3, 8]: 35.3 ± 8.3 ng/mL
concentration at 6 h [3, 9]: 10.1 ± 3 ng/mL
concentration at 8 h [3, 10]: 3.7 ± 0.7 ng/mL
AUC(0-inf) [3, 14]: 467 ng·h/mL
AUC(0-inf) [3, 15]: 452 ng·h/mL
AUC(0-inf) [3, 16]: 627 ng·h/mL
Cmax [3, 14]: 472 ng/mL
Cmax [3, 15]: 520 ng/mL
Cmax [3, 16]: 567 ng/mL
half-life [3, 14]: 1.5 h
half-life [3, 15]: 1.5 h
half-life [3, 16]: 1.5 h
Mean Conc. in plasma [3, 17]: BLQ
Mean Conc. in plasma ([3]; Cassette #3, single 15 mg/kg iv cassette dose (3 mg/kg/compound), 24 h): BLQ
Mean Conc. in plasma [3, 11]: BLQ
Mean concentration in plasma [3, 12]: BLQ
AUC0-∞ ([3]; mouse plasma, iv Cassette #1, 3 mg/kg/compound (18 mg/kg total dose)): 532 ng·h/mL
SMILES: NC1CCC(Nc2nc(NCCCc3ccccc3)c3ncn(C4CCCC4)c3n2)CC1 (stereo not drawn) [MDL 107167, reference compound]

Mean Red Blood Cell to Plasma Ratio [2]: 4.1
Mean Conc. in plasma [3, 13]: BLQ^a
Mean Conc. in plasma [3, 17]: BLQ^a
SMILES: CCOC(=O)c1ccc(NC(=O)N2CCC(Nc3nc(N[C@H]4CC[C@H](N)CC4)nc4c3ncn4C3CCCC3)CC2)cc1.Cl.Cl [Compound 154, trans-4-[(1-{4-[2-(4-Amino-cyclohexylamino)-9-cyclopentyl-9H-purin-6-ylamino]-piperidine-1-yl}-methanoyl)-amino]-benzoic acid ethyl ester dihydrochloride]
